Test results published in a melting point compilation (Tetko et al.; mined from patent text by program, amines drawn as free bases though some values may be those of a salt).

SMILES | melting point [°C]
CC(=O)C1C(C)CC2C3CCC4=CCC=CC4(C)C3CCC21C (stereo unspecified) | 175
C[C@@H]1N(C)C(C)(C)CO[C@@]1(O)c1ccc(Cl)cc1 | 167 to 169
O=C(Nc1ccccn1)c1cn(-c2ccccc2)c2ccccc2c1=O | 238 to 240
O=Cc1ccc2ccc(-c3ccccc3)nc2c1 | 108
Cc1nc(-c2cc3c4ccccc4n(CCCCl)c3cn2)no1 | 130 to 135
c1ccc(SCCCSc2nnnn2-c2ccccc2)cc1 | 57 to 59
C=C(CO)COCCCCCCCCCCCCCCCC | 34
Cc1cc(CO)n(CCCOc2cc3c(cc2C)OC2(CC(C)(C)c4cc(O)c(C)cc4O2)CC3(C)C)n1 (stereo unspecified) | 208 to 210
COC(=O)NN=C(OC)OC | 78.5 to 81.5
CC(=O)OCC1CCC2C3CCC4=CC(=O)CCC4(C)C3CCC12C (stereo unspecified) | 141 to 142
CC(C)C(C)NC1=NS(=O)(=O)c2cc(Cl)c(Cl)cc2N1 (stereo unspecified) | 242 to 250
CCOC(=O)c1c(Cc2cc3c(cc2Cl)OCO3)c(-c2ccccc2)nn1CC1CCCCC1 | 130
CCc1cnc2c(NC(=O)c3c(Cl)cccc3Cl)cccc2c1CN1CCN(C)C1=O | 202 to 203
CCCCNC(=O)c1nc2ccc(OC)cc2[nH]1 | 125 to 126
O=C(c1ccc(F)cc1)C1CCN(CCCn2c(=S)[nH]c3ccccc3c2=O)CC1 | 200
NC(=O)Cc1ccc2c(c1)CCc1ccccc1O2 | 205 to 206
Clc1ccc(NNc2ccc(Cl)cc2)cc1 | 120 to 121
Cn1nc(-c2cc(Cl)c(F)cc2F)c(Cl)c1C(F)(F)F | 50 to 51
O=C(c1ccccc1)c1ccc(CP(=O)(O)O)cc1 | 172 to 175
CSC(C(=O)c1cc(-c2ccccc2)on1)N(C)C (stereo unspecified) | 98 to 99.5
OCCc1ccc(Oc2cc(C(F)(F)F)ccn2)cc1 | 78 to 79

SMILES | melting point [°C]
CC(=O)N(C)c1cc(-c2ccnc3c(C(=O)c4cccs4)cnn23)ccc1F | 165 to 167
CN1C(=O)C(C(=O)Nc2ccccc2)c2cc3ccccc3cc2S1(=O)=O (stereo unspecified) | 188 to 190
COc1ccc(Cl)cc1-c1c(S)c(=O)[nH]c2ccc(C(F)(F)F)cc12 | 239 to 241
CCOC(=O)CNC(=O)c1nc2ccc(Cl)nn2c1C | 192 to 195
CC(CCCc1ccccc1)c1cc(O)c2c(c1)N1C(=O)CCC1CC2=O (stereo unspecified) | 127 to 130
O=C(O)CCC(O)c1ccc(-c2ccccc2Cl)cc1 (stereo unspecified) | 90 to 95
CC1(C)CC(=O)Nc2cc3nc(-c4ccccc4)[nH]c3cc21 | 296 to 298
CC[Si](CC)(CC)c1cccc2c1oc1c([Si](CC)(CC)CC)cccc12 | 59 to 61
O=C1CCCc2nc3cc(Cl)ccc3c(NCc3ccccc3)c21 | 141 to 143
CCCCCCCCCCCCCCCCSC(N)C(CN)C(=O)OC(C)(C)C (stereo unspecified) | 46 to 47
CCOCc1nc2c(N)nc3ccccc3c2n1CCCCC(=O)N1CCOCC1 | 128 to 129
CN1CC(c2ccc(OCc3ccc(F)cc3)cn2)=C(O)C1=O | 210 to 211
O=C(O)Cc1ccccc1OCCCCc1cc(-c2ccc(C(F)(F)F)cc2)no1 | 122 to 123
CCCc1nc2c(N)nc3cc(OCc4cscn4)ccc3c2s1 | 218 to 220
COC(=O)c1cc(Br)c(O)c(C(C)=O)c1 | 106 to 108
O=C1Nc2ccccc2Sc2ncccc21 | 260 to 261
Cc1ccc(C(=C(C=CC(O)CC(=O)CC(=O)OC(C)(C)C)c2nnnn2C)c2ccc(C)cc2F)c(F)c1 (stereo unspecified) | 55 to 63
CC1(C)Oc2ccc([N+](=O)[O-])cc2C(Br)C1Br (stereo unspecified) | 130 to 134
CN(C)Cc1cccc(Cc2cnc(N[N+](=O)[O-])[nH]c2=O)c1 | 232 to 235
Nc1ncc2c(n1)N(c1ccccc1)C(=O)N(c1c(Cl)cccc1Cl)C2 | > 300
